The NIST ThermoML archive (doi:10.1021/je100693c)

Legend:
[1] = excess molar enthalpy (molar enthalpy of mixing); xn = mol fraction of the nth substance listed; conditions: 101 kPa, Liquid
[2] = xn = mol fraction of the nth substance listed; conditions: 101 kPa, Liquid, Vibrating tube method

OCC(F)(F)F [2,2,2-trifluoroethanol] + CCCCn1cc[n+](C)c1.F[B-](F)(F)F
Conditions	excess molar enthalpy [kcal/mol]	mass density [kg/m3]
[1], 298.15 K, x2 = 0.0878	0.174	–
[1], 298.15 K, x2 = 0.1614	0.279	–
[1], 298.15 K, x2 = 0.2042	0.305	–
[1], 298.15 K, x2 = 0.2779	0.318	–
[1], 298.15 K, x2 = 0.3392	0.302	–
[1], 298.15 K, x2 = 0.3908	0.289	–
[1], 298.15 K, x2 = 0.435	0.273	–
[1], 298.15 K, x2 = 0.5065	0.238	–
[1], 298.15 K, x2 = 0.6581	0.162	–
[1], 298.15 K, x2 = 0.6919	0.145	–
[1], 298.15 K, x2 = 0.7549	0.119	–
[1], 298.15 K, x2 = 0.8089	0.0909	–
[1], 298.15 K, x2 = 0.9059	0.0403	–
[1], 323.15 K, x2 = 0.0459	0.0433	–
[1], 323.15 K, x2 = 0.1137	0.113	–
[1], 323.15 K, x2 = 0.2042	0.168	–
[1], 323.15 K, x2 = 0.2779	0.179	–
[1], 323.15 K, x2 = 0.3461	0.173	–
[1], 323.15 K, x2 = 0.435	0.154	–
[1], 323.15 K, x2 = 0.5359	0.128	–
[1], 323.15 K, x2 = 0.6062	0.108	–
[1], 323.15 K, x2 = 0.6978	0.079	–
[1], 323.15 K, x2 = 0.822	0.0433	–
[1], 323.15 K, x2 = 0.885	0.0286	–
[2], 283.15 K, x2 = 0	–	1408.2
[2], 283.15 K, x2 = 0.1032	–	1360.8
[2], 283.15 K, x2 = 0.2129	–	1322.2
[2], 283.15 K, x2 = 0.299	–	1299.8
[2], 283.15 K, x2 = 0.4022	–	1279.1
[2], 283.15 K, x2 = 0.5028	–	1262.9
[2], 283.15 K, x2 = 0.5808	–	1252.3
[2], 283.15 K, x2 = 0.6912	–	1239.6
[2], 283.15 K, x2 = 0.8062	–	1228.5
[2], 283.15 K, x2 = 0.8945	–	1221.2
[2], 293.15 K, x2 = 0	–	1391.1
[2], 293.15 K, x2 = 0.1032	–	1346.9
[2], 293.15 K, x2 = 0.2129	–	1310.1
[2], 293.15 K, x2 = 0.299	–	1288.8
[2], 293.15 K, x2 = 0.4022	–	1269
[2], 293.15 K, x2 = 0.5028	–	1253.4
[2], 293.15 K, x2 = 0.5808	–	1243.3
[2], 293.15 K, x2 = 0.6912	–	1231.2
[2], 293.15 K, x2 = 0.8062	–	1220.5
[2], 293.15 K, x2 = 0.8945	–	1213.3
[2], 303.15 K, x2 = 0	–	1373.8
[2], 303.15 K, x2 = 0.1032	–	1332.9
[2], 303.15 K, x2 = 0.2129	–	1298.1
[2], 303.15 K, x2 = 0.299	–	1277.9
[2], 303.15 K, x2 = 0.4022	–	1259.1
[2], 303.15 K, x2 = 0.5028	–	1244.3
[2], 303.15 K, x2 = 0.5808	–	1234.6
[2], 303.15 K, x2 = 0.6912	–	1223.1
[2], 303.15 K, x2 = 0.8062	–	1212.8
[2], 303.15 K, x2 = 0.8945	–	1205.8
[2], 313.15 K, x2 = 0	–	1356.1
[2], 313.15 K, x2 = 0.1032	–	1319
[2], 313.15 K, x2 = 0.2129	–	1286.1
[2], 313.15 K, x2 = 0.299	–	1267
[2], 313.15 K, x2 = 0.4022	–	1249.4
[2], 313.15 K, x2 = 0.5028	–	1235.2
[2], 313.15 K, x2 = 0.5808	–	1226
[2], 313.15 K, x2 = 0.6912	–	1215
[2], 313.15 K, x2 = 0.8062	–	1205.1
[2], 313.15 K, x2 = 0.8945	–	1198.3
[2], 323.15 K, x2 = 0	–	1338
[2], 323.15 K, x2 = 0.1032	–	1304.9
[2], 323.15 K, x2 = 0.2129	–	1274.3
[2], 323.15 K, x2 = 0.299	–	1256.4
[2], 323.15 K, x2 = 0.4022	–	1239.7
[2], 323.15 K, x2 = 0.5028	–	1226.4
[2], 323.15 K, x2 = 0.5808	–	1217.5
[2], 323.15 K, x2 = 0.6912	–	1207
[2], 323.15 K, x2 = 0.8062	–	1197.6
[2], 323.15 K, x2 = 0.8945	–	1190.9
[2], 333.15 K, x2 = 0	–	1319.1
[2], 333.15 K, x2 = 0.1032	–	1290.6
[2], 333.15 K, x2 = 0.2129	–	1262.4
[2], 333.15 K, x2 = 0.299	–	1245.8
[2], 333.15 K, x2 = 0.4022	–	1230
[2], 333.15 K, x2 = 0.5028	–	1217.4
[2], 333.15 K, x2 = 0.5808	–	1209
[2], 333.15 K, x2 = 0.6912	–	1199.1
[2], 333.15 K, x2 = 0.8062	–	1190.1
[2], 333.15 K, x2 = 0.8945	–	1183.6
